Source: paper PMC5071857, “A unique peptide deformylase platform to rationally design and challenge novel active compounds” (Scientific Reports, 2016)
Read-outs that look alike come from different tables or passages of the source.

What was measured:
E. coli AG100 = assay: MIC by microdilution, E. coli AG100; assay type: cell-based; settings: 18 h at 37 °C, average of three assays; for MIC: Escherichia coli, AG100, without PMBN; for MIC AG100: with PMBN at 1/5 of its MIC
Description: (§1) Two E. coli strains, one B. subtilis strain, one S. aureus strain, one E. faecalis strain, one S. agalactiae strain and three Enterobacter aerogenes strains previously described were used. Briefly, AG100 was an E. coli wild type strain and AG100A its acrAB^- derivative. EA289 was a Kan^s derivative of an E. aerogenes multi-drug resistant (MDR) clinical isolate overexpressing AcrAB-TolC efflux pumps, and EA294 and EA298 its acrAB^- and tolC^- derivatives respectively. Strains were routinely grown at 37 °C on Luria-Bertani (LB) agar or in Mueller-Hinton II broth (MH), supplemented with kanamycine (50 μg.mL^−1) for AG100A, EA294 and EA298.
(§2) MIC values of antibiotics were determined by the microdilution method in liquid MH media in microplates in the absence or presence of chemosensitizers/modulators (e.g. PMBN, PAβN), as previously described. Permeabilization, blocking of efflux pumps, and isolates with different levels of porin or efflux expression were used to assess the involvement of the membrane barrier in antibiotic activity.
(§3) Susceptibilities were determined in 96-wells microplates with an inoculum of 2 × 10^5 cfu in 200 μL of MH broth containing two-fold serial dilutions of each antibiotics or compounds. Molecules were tested alone or in combination with other molecules in equimolar ratio. MICs were realized in the absence and in the presence of a membrane permeabilizer, the polymyxine B nonapeptide (PMBN) used at 51.2 mg/L (1/5 or 1/10 of its direct MIC previously determined). Actinonin and ciprofloxacin were used as internal antibiotic reference. […] Each test was systematically performed in triplicate. The average of three independent assays is presented in μg/mL in the respective tables.

AtPDF1B [1] = target: T1, AtPDF1B (Arabidopsis thaliana, UniProt Q9FUZ2); assay: PDF inhibition, formate dehydrogenase-coupled spectrophotometric assay (AtPDF1B); assay type: biochemical; settings: for IC50 / Ki: 100 nM AtPDF1B; for IC50: 2 mM Fo-Met-Ala-Ser, 10 min pre-incubation at 37 °C; for Ki: PDFI pre-incubated with enzyme 10 min at 37 °C, started by 2 mM Fo-Met-Ala-Ser, read-out: AtPDF1B KI*app; for AtPDF1B KI/KI*app: enhancement potency (slow tight-binding)
T1 construct: made in house
T1 sequence (Q9FUZ2 83-273): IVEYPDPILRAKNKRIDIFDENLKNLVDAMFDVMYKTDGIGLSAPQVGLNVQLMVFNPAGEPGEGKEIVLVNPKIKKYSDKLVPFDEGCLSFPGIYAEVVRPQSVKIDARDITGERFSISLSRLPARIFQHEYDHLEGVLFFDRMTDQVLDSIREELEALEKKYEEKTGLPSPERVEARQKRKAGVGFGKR
Description: (§4) Enzymatic activity was measured by a spectrophotometric assay where peptide deformylase activity is coupled to that of formate dehydrogenase. The formate released by the deformylation reaction is used by FDH to convert NAD in NADH, the production of which being measured over time at 340 nm and controlled temperature (37 °C). The 200 μL reaction mixture contained 50 mM HEPES-NaOH pH7.5, 12 mM NAD^+, 4.5 U/mL FDH, 1 mM NiCl2 and PDF enzyme (either 40 nM SaPDF or 10 nM EcPDF or 100 nM AtPDF1B) previously diluted in presence of 0.1 mg/mL BSA. The reaction was started by addition of 1–6 mM Fo-Met-Ala-Ser. Kinetics parameters (kcat, Km) were derived from iterative non-linear least square fits using the Michaelis-menten equation based on the experimental data (Sigma-Plot, Kinetics module).
(§5) 1/KI*app is the slope of the v0/vi curve in function of compound concentration, where v0 and vi are the initial reaction rates in absence and presence of compound, respectively.
(§6) Determination of KI values was performed with a slightly modified protocol: reaction was started by addition of enzyme instead of Fo-Met-Ala-Ser, the latter being directly added to the mixture containing increasing concentrations of each compound. No pre-incubation of enzyme in presence of compound was done. 1/KI is the slope of the v0/vi curve in function of compound concentration, where v0 and vi are the initial reaction rates in absence and presence of compound respectively.

EcPDF = target: T2, EcPDF (Escherichia coli, UniProt P0A6K3); assay: PDF inhibition, formate dehydrogenase-coupled spectrophotometric assay (EcPDF); assay type: biochemical; settings: for Ki: 10 nM EcPDF; for EcPDF KI/KI*app: enhancement potency (slow tight-binding)
T2 construct: made in house
Description: as §4, with “The” for “Enzymatic activity was measured by a spectrophotometric assay where peptide deformylase activity is coupled to that of formate dehydrogenase. The”
as §5, §6

AtPDF1B [2] = target: T1, AtPDF1B; assay: PDF inhibition, formate dehydrogenase-coupled spectrophotometric assay (AtPDF1B); assay type: biochemical; settings: no pre-incubation, assay initiated by addition of enzyme; 100 nM AtPDF1B; 37 °C
SaPDF [3] = target: T3, SaPDF (Streptococcus agalactiae serotype III, UniProt Q8E378, S2A); assay: biochemical; settings: for Ki: SaPDF KI, no pre-incubation, assay initiated by addition of enzyme, 40 nM SaPDF, 37 °C; for SaPDF KI/KI*app: enhancement potency (slow tight-binding)
T3 construct: the recombinant protein contains all residues of the 204 amino acids mature protein; made in house; host or cells: E. coli Rosetta 2(DE3)pLysS
Description: as §4, §5, §6

SaPDF [4] = target: T3, SaPDF; assay: biochemical; settings: SaPDF KI*app, PDFI pre-incubated with enzyme 10 min at 37 °C, started by 2 mM Fo-Met-Ala-Ser; 40 nM SaPDF
[5] = system: E. coli AG100A (AcrAB- derivative); assay: MIC by microdilution, E. coli AG100A; assay type: cell-based; settings: for MIC: Escherichia coli, 18 h, read-out: MIC AG100A; for MIC AG100A: with PMBN at 1/5 of its MIC, 18 h at 37 °C, average of three assays
Description: as §1, §2, §3

[6] = system: E. aerogenes Ea294, Ea289 derivative AcrAB-; assay: MIC by microdilution, E. aerogenes Ea294; assay type: cell-based, Enterobacter aerogenes
Description: as §1, §2, §3

[7] = system: E. aerogenes Ea298, Ea289 derivative tolC-; assay: MIC by microdilution, E. aerogenes Ea298; assay type: cell-based, Enterobacter aerogenes
Description: as §1, §2, §3

[8] = system: E. aerogenes Ea289, MDR strain; assay: MIC by microdilution, E. aerogenes Ea289; assay type: cell-based, Enterobacter aerogenes
Description: as §1, §2, §3

E. faecalis EFA 103.214 = assay: MIC, E. faecalis EFA 103.214; assay type: cell-based; settings: Enterococcus faecalis, EFA103.214, read-out: MIC E. faecalis EFA 103.214
Description: as §1, §2, §3

S. aureus SA113 = assay: MIC, S. aureus SA113; assay type: cell-based; settings: Staphylococcus aureus
Description: as §1, §2, §3

[9] = EcPDF KI*app, PDFI pre-incubated with enzyme 10 min at 37 °C, started by 2 mM Fo-Met-Ala-Ser
[10] = EcPDF KI, no pre-incubation, assay initiated by addition of enzyme, 37 °C
[11] = +PMBN at 1/5 of its MIC, average of three assays

T3 sequence (Q8E378 whole entry S2A): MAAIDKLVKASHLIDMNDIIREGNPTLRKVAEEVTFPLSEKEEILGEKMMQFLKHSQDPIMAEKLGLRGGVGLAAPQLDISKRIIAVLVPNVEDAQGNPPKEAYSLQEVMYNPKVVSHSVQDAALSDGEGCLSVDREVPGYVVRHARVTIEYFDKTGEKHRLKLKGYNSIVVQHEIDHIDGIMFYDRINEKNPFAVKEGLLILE
T2 sequence (P0A6K3 whole entry): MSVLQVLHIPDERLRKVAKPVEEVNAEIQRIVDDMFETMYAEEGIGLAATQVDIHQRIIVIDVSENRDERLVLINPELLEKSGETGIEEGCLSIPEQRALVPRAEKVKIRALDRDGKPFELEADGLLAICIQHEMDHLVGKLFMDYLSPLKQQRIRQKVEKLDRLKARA

Row | Structure (SMILES) | MIC (E. coli AG100) | MIC AG100 (E. coli AG100) | IC50 (AtPDF1B [1]) | Ki (AtPDF1B [1]) | AtPDF1B KI/KI*app (AtPDF1B [1]) | IC50 (EcPDF) | Ki (EcPDF; [9]) | Ki (EcPDF; [10]) | EcPDF KI/KI*app (EcPDF) | Ki (AtPDF1B [2]) | IC50 (SaPDF [3]) | Ki (SaPDF [3]) | SaPDF KI/KI*app (SaPDF [3]) | Ki (SaPDF [4]) | MIC [5] | MIC AG100A [5] | MIC (E. faecalis EFA 103.214) | MIC (S. aureus SA113) | other results
1 | O=C(Cc1c[nH]c2ccc(Br)cc12)NO [AB47] | > 64 µg/mL | 64 µg/mL | 360 ± 31 nM | 400 ± 35 nM | 1 | 37 ± 5 nM | 39 ± 2 nM | 47 ± 2 nM | 1 | 455 ± 89 nM | 63 ± 6 nM | 62 ± 3 nM | 1 | 73 ± 5 nM | 64 µg/mL | 32 µg/mL | – | – | –
2 | CCCCC[C@H](CC(=O)NO)C(=O)N[C@H](C(=O)N1CCC[C@H]1CO)C(C)C [Actinonin, actinonin, reference compound] | 128 µg/mL | 4 µg/mL | 7.5 ± 1.8 nM | 3.5 ± 0.3 nM | – | – | – | – | – | 82 ± 10 nM | 3 ± 0.9 nM | 64 ± 5 nM | – | 1 ± 0.1 nM | 1 µg/mL | 0.25 µg/mL | – | – | MIC Ea294 [6, 11]: 4 µg/mL; MIC ([6]; Klebsiella aerogenes, 18 h, read-out: MIC Ea294): 64 µg/mL; MIC Ea298 [7, 11]: 1 µg/mL; MIC ([7]; Klebsiella aerogenes, 18 h, read-out: MIC Ea298): 32 µg/mL; MIC Ea289 [8, 11]: 32 µg/mL; MIC ([8]; Klebsiella aerogenes, 18 h, read-out: MIC Ea289): > 64 µg/mL
3 | CCCCC(CC(=O)NO)c1nc(Cc2ccc(C(F)(F)F)cc2)no1 (stereo not shown) [AT008] | > 64 µg/mL | >64 µg/mL | – | 666 ± 29 nM | 1 | 14 ± 2 nM | 18 ± 3 nM | 80 ± 10 nM | 4 | 909 ± 78 nM | 25 ± 2 nM | 75 ± 4 nM | 1 | 81 ± 5 nM | > 64 µg/mL | 16 µg/mL | > 64 µg/mL | > 64 µg/mL | –
4 | O=C(Cc1cn(Cc2ccccc2)c2ccc(Br)cc12)NO [SMP195] | – | – | 400 ± 33 nM | 833 ± 53 nM | 1 | 17 ± 4 nM | 20 ± 3 nM | 29 ± 4 nM | 1 | 909 ± 118 nM | 110 ± 10 nM | 285 ± 18 nM | 1 | 250 ± 17 nM | – | – | 16 µg/mL | 4 µg/mL | –
5 | CCCCC(CC(=O)NO)c1nc(Cc2ccc(C(=O)OC)cc2)no1 (stereo not shown) [AT018] | > 64 µg/mL | 64 µg/mL | 650 ± 20 nM | 833 ± 10 nM | 1 | 20 ± 2 nM | 12 ± 1 nM | 49 ± 3 nM | 4 | 1110 ± 100 nM | 20 ± 1 nM | 38 ± 6 nM | 2 | 18 ± 1 nM | > 64 µg/mL | 16 µg/mL | – | – | –
